# Values quoted from earlier work in US8884000B2 (priority 2010, dated 2014).
# Target: saporin-L1 (Saponaria officinalis, UniProt Q2QEH4)
# Conditions: pH 7.8
# Sequence of saporin-L1 (Q2QEH4 22-280 limits assumed): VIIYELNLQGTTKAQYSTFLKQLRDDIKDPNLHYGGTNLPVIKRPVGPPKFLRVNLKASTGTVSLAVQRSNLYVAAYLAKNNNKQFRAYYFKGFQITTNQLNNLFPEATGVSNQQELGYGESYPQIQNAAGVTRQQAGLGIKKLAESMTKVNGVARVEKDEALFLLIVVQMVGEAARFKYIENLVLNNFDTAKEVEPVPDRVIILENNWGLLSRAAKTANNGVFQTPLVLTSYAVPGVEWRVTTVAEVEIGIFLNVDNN
substance,measurement,value
poly(A),Km,639 ± 32 µM
same,kcat,61 ± 1 min⁻¹
